The text below walks through data of patent publication US11739064B2, “HDAC inhibitors and therapeutic methods using the same” (THE BOARD OF TRUSTEES OF THE UNIVERSITY OF ILLINOIS, priority 2015, dated 2023).

The target of assay [1] is HDAC2 (Homo sapiens, UniProt Q92769). In words: In vitro HDAC inhibition assay, HDAC2. In kind it is biochemical.
In assay [2] the target is HDAC3/NcoR2 complex (Homo sapiens, UniProt O15379). In words: In vitro HDAC inhibition assay, HDAC3. It is filed as biochemical.
Chain of HDAC3/NcoR2 complex (O15379 whole entry): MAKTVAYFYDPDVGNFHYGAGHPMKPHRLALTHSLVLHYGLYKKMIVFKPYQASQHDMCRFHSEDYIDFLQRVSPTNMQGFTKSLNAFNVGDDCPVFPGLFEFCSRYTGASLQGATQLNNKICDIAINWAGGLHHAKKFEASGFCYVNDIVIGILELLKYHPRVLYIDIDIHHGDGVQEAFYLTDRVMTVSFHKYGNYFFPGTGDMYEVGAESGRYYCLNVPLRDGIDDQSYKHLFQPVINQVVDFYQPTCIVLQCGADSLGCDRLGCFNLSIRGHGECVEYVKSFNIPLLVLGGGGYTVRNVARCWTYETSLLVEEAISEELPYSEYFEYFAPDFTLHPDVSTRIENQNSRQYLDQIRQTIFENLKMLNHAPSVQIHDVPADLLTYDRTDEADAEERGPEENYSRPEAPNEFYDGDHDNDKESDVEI
Chain of HDAC3/NcoR2 complex (Q9Y618 395-489 partner limits assumed): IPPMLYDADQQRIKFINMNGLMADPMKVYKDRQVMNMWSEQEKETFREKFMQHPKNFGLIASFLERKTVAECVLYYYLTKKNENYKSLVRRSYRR
Assay [3] concerns L3.6pl. Nature of the assay: In vitro growth inhibition (GI), MTS cell proliferation assay (Table 5), L3.6pl. In kind it is cell-based. As to conditions: Homo sapiens, 72 hours post-treatment. (Formazan colour is commonly taken as a measure of viable cells.)
Assay [4] addresses HDAC4 (Homo sapiens, UniProt P56524). Nature of the assay: HDAC isoform inhibition, HDAC4. In kind it is biochemical.
Assay [5] deals with T1, Human HDAC6 (Homo sapiens, UniProt Q9UBN7).
T1 construct: Full length with N-terminal GST tag, MW=159 kDa; GST (N); host or cells: baculovirus expression system, Sf9 cells
T1 sequence (Q9UBN7 1-1215): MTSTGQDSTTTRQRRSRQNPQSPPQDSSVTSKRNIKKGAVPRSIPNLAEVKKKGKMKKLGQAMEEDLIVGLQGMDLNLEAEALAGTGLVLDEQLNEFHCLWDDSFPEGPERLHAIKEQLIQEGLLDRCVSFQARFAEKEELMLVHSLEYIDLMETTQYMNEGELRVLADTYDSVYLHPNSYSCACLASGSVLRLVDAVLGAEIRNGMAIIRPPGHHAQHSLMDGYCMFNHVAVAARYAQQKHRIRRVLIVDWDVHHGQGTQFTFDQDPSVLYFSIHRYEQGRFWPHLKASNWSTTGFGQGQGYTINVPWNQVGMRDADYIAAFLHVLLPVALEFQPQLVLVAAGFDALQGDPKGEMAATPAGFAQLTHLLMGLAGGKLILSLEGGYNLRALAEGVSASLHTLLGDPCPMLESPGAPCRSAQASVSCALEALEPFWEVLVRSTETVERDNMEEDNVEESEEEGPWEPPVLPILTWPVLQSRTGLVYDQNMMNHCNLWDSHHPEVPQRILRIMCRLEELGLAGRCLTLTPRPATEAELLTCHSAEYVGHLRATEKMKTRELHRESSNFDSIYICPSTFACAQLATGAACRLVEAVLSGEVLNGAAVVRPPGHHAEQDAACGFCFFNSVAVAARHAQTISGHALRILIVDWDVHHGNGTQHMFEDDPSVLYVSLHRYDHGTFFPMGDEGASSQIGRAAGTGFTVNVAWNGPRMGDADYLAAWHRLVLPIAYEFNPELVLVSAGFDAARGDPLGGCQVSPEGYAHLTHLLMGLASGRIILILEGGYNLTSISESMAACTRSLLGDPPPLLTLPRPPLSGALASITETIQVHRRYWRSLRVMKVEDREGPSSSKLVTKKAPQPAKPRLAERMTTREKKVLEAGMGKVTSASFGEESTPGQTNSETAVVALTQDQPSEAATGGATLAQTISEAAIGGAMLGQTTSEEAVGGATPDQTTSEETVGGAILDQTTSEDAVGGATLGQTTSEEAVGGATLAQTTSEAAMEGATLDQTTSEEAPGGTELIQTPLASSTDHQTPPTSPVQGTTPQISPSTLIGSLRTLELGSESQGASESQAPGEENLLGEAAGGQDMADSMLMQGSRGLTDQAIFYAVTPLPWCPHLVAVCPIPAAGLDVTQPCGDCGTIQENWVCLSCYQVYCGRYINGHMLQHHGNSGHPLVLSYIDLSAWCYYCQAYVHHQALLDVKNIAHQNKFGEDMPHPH
Nature of the assay: In vitro HDAC inhibition assay, HDAC6. To be noted: read-out: HDAC isoform IC50, HDAC6. In kind it is biochemical.

The target in assay [6] is T2, HDAC8 (Homo sapiens, UniProt Q9BY41).
T2 sequence (Q9BY41 1-377): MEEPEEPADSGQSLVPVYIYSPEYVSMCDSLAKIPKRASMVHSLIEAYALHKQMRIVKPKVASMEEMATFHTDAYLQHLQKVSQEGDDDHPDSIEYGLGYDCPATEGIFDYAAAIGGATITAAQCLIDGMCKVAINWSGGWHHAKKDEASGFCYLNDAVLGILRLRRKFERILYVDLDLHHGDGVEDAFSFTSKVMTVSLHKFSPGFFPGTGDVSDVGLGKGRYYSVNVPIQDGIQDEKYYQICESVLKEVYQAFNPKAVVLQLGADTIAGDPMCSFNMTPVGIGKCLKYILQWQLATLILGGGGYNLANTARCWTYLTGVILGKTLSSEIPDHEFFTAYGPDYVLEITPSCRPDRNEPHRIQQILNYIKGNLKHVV
In words: HDAC isoform inhibition, HDAC8. It is filed as biochemical.

Chain of HDAC2 (Q92769 whole entry): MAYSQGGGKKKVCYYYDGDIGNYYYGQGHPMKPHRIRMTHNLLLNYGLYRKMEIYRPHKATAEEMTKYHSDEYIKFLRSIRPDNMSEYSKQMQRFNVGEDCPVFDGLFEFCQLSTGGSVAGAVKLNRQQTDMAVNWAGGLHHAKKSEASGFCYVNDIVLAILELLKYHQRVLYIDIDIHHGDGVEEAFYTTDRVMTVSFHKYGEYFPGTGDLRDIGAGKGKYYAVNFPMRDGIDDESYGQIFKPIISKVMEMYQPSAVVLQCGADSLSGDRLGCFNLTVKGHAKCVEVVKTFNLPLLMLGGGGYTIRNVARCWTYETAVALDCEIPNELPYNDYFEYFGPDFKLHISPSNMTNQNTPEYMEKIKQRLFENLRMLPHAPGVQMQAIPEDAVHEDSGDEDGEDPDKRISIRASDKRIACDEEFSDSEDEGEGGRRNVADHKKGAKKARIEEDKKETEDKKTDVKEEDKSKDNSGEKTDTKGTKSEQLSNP
Chain of HDAC4 (P56524 whole entry, canonical isoform): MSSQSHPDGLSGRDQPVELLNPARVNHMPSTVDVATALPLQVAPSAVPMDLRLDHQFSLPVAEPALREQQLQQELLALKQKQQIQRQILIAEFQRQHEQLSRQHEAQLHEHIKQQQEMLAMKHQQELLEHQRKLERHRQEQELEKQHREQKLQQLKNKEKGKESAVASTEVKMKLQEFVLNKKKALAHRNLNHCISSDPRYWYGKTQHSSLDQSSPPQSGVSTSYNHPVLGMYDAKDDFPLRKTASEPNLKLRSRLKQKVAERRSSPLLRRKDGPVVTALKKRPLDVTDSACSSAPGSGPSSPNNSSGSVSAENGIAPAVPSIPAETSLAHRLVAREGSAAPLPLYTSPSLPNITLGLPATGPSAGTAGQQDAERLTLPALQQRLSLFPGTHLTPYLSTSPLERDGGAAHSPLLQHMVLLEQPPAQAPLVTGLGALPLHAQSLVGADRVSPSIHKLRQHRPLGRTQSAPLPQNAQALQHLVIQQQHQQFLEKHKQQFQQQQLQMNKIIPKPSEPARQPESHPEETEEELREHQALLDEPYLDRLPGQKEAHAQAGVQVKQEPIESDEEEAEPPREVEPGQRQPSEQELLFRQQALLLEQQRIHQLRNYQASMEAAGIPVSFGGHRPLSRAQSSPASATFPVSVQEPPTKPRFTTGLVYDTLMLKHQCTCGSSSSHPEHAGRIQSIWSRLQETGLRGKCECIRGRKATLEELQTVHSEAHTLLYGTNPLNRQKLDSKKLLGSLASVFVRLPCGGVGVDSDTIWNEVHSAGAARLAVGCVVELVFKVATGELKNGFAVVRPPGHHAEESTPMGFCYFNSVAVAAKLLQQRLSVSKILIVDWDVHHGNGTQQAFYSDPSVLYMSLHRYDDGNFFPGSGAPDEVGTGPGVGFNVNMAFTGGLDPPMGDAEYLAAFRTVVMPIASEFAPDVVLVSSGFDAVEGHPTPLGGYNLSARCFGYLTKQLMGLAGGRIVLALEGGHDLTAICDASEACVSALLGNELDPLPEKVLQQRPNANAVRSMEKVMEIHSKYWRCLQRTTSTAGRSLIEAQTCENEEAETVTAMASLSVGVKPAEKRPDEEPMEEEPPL

Turning to `CC(C)(C)OC(=O)Nc1ccc(-c2cc(C(=O)NCCc3cc(C(=O)NO)no3)no2)cc1` [Compound 6, (4-{3-[2-(3-Hydroxycarbamoyl-isoxazol-5-yl)-ethylcarbamoyl]-isoxazol-5-yl}-phenyl)-carbamic acid tert-butyl ester], the “Selectivity for HDAC6 (fold) over HDAC2” value in assay [1] amounted to 20500 fold. For the same compound, the IC50 in assay [1] (NI = No inhibition at a concentration of 50 pM (footnote b), read-out: HDAC isoform IC50, HDAC2) turned out to be 123 µM; in assay [2] (NI = No inhibition at a concentration of 50 pM (footnote b), read-out: HDAC isoform IC50, HDAC3), 22.8 µM; in assay [4] it was 130 µM; in assay [5], 6 nM; in assay [6], 810 nM. For the same compound, in assay [2], the “Selectivity for HDAC6 (fold) over HDAC3” value is listed as 3800 fold. Further, in assay [3], the 50% growth inhibitory concentration (GI50) was > 50 µM. For the same compound, the “Selectivity for HDAC6 (fold) over HDAC4” value in assay [4] is 21600 fold. Moreover, the “Selectivity for HDAC6 (fold) over HDAC8” value in assay [6] was found to be 135 fold.

The term IC50 denotes the concentration needed to halve the response being measured. One may read the GI50 as the concentration that inhibits growth by half. A higher GI50 goes with less potent growth inhibition.
